Measurements: the NIST ThermoML archive (doi:10.1016/j.jct.2006.07.025)
Values joined by “and” are separate entries in the source; they are usually repeats but may differ in a detail not shown here. Equal values may be shown once. ± gives the expanded uncertainty stated by the source.

How the values were obtained:
[1] = for surface tension liquid-gas: Pendant drop shape; for mass density: 101 kPa, Liquid, Vibrating tube method
[2] = xn = mol fraction of the nth substance listed; settings: x1 = 1; for surface tension liquid-gas: Pendant drop shape; for mass density: 101 kPa, Liquid, Vibrating tube method

| SMILES | surface tension liquid-gas ([1]; 298.15 K) [mN/m] | mass density ([1]; 298.15 K) [kg/m3] | surface tension liquid-gas ([1]; 303.15 K) | mass density ([1]; 303.15 K) [kg/m3] | surface tension liquid-gas ([1]; 308.15 K) [mN/m] | mass density ([1]; 308.15 K) [kg/m3] | surface tension liquid-gas ([1]; 313.15 K) [mN/m] | mass density ([1]; 313.15 K) [kg/m3] | surface tension liquid-gas ([2]; 298.15 K) [mN/m] | mass density ([2]; 298.15 K) [kg/m3] | surface tension liquid-gas ([2]; 303.15 K) [mN/m] | mass density ([2]; 303.15 K) [kg/m3] | surface tension liquid-gas ([2]; 308.15 K) [mN/m] | mass density ([2]; 308.15 K) [kg/m3] | surface tension liquid-gas ([2]; 313.15 K) [mN/m] | mass density ([2]; 313.15 K) [kg/m3] |
| --- | --- | --- | --- | --- | --- | --- | --- | --- | --- | --- | --- | --- | --- | --- | --- | --- |
| Cc1ccc(C)c(C)c1 [1,2,4-trimethylbenzene] | 29.17 ± 0.33 | 871.66 ± 0.19 | 28.67 ± 0.32 mN/m | 867.61 ± 0.19 | 28.17 ± 0.32 | 863.59 ± 0.19 | 27.67 ± 0.31 | 859.54 ± 0.19 | – | – | – | – | – | – | – | – |
| Cc1cc(C)cc(C)c1 [1,3,5-trimethylbenzene] | 28.09 ± 0.31 | 861.04 ± 0.18 | 27.67 ± 0.31 mN/m | 856.96 ± 0.18 | 27.24 ± 0.3 | 852.84 ± 0.18 | 26.82 ± 0.3 | 848.74 ± 0.18 | – | – | – | – | – | – | – | – |
| CCCCOC(C)=O [butyl ethanoate] | 24.89 ± 0.27 | 876.18 ± 0.14 | 24.35 ± 0.27 mN/m | 871.31 ± 0.14 | 23.82 ± 0.27 | 866.24 ± 0.14 | 23.28 ± 0.26 | 861.57 ± 0.14 | – | – | – | – | – | – | – | – |
| CCCCOC(C)=O [butyl ethanoate] + Cc1cc(C)cc(C)c1 | – | – | – | – | – | – | – | – | 24.89 ± 0.27 | 876.18 ± 0.14 | 24.35 ± 0.27 | 871.31 ± 0.14 | 23.82 ± 0.27 | 866.24 ± 0.14 | 23.28 ± 0.26 | 861.57 ± 0.14 |
| CCCCOC(C)=O [butyl ethanoate] + Cc1ccc(C)c(C)c1 | – | – | – | – | – | – | – | – | 24.89 ± 0.27 | 876.18 ± 0.14 | 24.35 ± 0.27 | 871.31 ± 0.14 | 23.82 ± 0.27 | 866.24 ± 0.14 | 23.28 ± 0.26 | 861.57 ± 0.14 |
| CCCOC(C)=O [propyl ethanoate] | 23.99 ± 0.27 | 882.64 ± 0.15 | 23.36 ± 0.26 mN/m and 23.35 ± 0.26 mN/m | 876.99 ± 0.15 | 22.73 ± 0.26 | 871.33 ± 0.15 | 22.1 ± 0.3 | 865.68 ± 0.15 | – | – | – | – | – | – | – | – |
| CCCOC(C)=O [propyl ethanoate] + Cc1cc(C)cc(C)c1 | – | – | – | – | – | – | – | – | 23.99 ± 0.27 | 882.64 ± 0.15 | 23.35 ± 0.26 | 876.99 ± 0.15 | 22.73 ± 0.26 | 871.33 ± 0.15 | 22.1 ± 0.25 | 865.68 ± 0.15 |
| CCCOC(C)=O [propyl ethanoate] + Cc1ccc(C)c(C)c1 | – | – | – | – | – | – | – | – | 23.99 ± 0.27 | 882.64 ± 0.15 | 23.36 ± 0.26 | 876.99 ± 0.15 | 22.73 ± 0.26 | 871.33 ± 0.15 | 22.1 ± 0.3 | 865.68 ± 0.15 |
